In patent publication US20240166690A1, “MULTI-TARGET CY[…] FOR OPIOID/NEUROPEPTIDE FF RECEPTORS, AND PREPARATION THEREFOR AND APPLICATION THEREOF” (SHANGHAI TIANCI LIFE SCIENCE DEVELOPMENT CO., LTD., priority 2021, published 2024):
Bridge positions count the residues as written; N and C are the ends. Square brackets hold non-standard residues; d marks the D form. Peptide text beside a SMILES is read from it. NMeF = CN[C@@H](Cc1ccccc1)C(=O)O; dOrn = NCCC[C@@H](N)C(=O)O

Assays:
Type in all cases: in vivo
Kunming male mice [1] = test: Open field test (locomotor activity); conditions: oral, 1000 μg/kg of compound 1, 100 μg/kg of compound 11; for locomotor distance: within 150 minutes, saline 131.1±33.93 m
Method: Open field test was consisted of an uncapped 50×50×40 cm black organic glass box and a set of motion monitoring system. 21±2 g Kunming male mice were selected for the experiment. The room temperature was controlled between 22±1° C., otherwise, high or low temperatures would affect the movement of the mice. Before the experiment began, the box was wipped with alcohol to remove the odor inside and avoid the odor from affecting the locomotor activity of the next mouse. Before the experiment, the basic locomotor activity of the mouse in 30 minutes was recorded, followed by oral (p.o.) injection of physiological saline, 1000 μg/kg of compound 1, and 100 μg/kg of compound 11. The locomotor activity of mice within 150 minutes was recorded. The locomotor activity of mouse was represented by the total distance traveled, which is the total distance±S.E.M. The difference between the compound group and saline control group was statistically analyzed using one-way ANOVA (Bonferroni test). *P<0.05, **P<0.01, and ***P<0.001 indicated significance of difference between saline and compound.

Kunming male mice [2] = test: Photothermal tail flick experiment, subcutaneous injection; conditions: photothermal tail flick
Method: Two administration methods were used: peripheral subcutaneous administration and oral administration. Subsequently, the analgesic activity of the drug was studied using an acute pain model of photothermal tail flick in mice.
Subcutaneous administration on the back was chosen for subcutaneous administration (s.c.). A sterile 1 mL syringe was used and the drug with the volume of 0.1 mL/10 g was injected for administration. The back skin was grasped with the right hand, the needle was tilted in, and the drug was injected subcutaneously into the mouse's back. After the needle was inserted, shook it left and right, and observe to confirm that the needle had indeed entered the subcutaneous area to prevent the needle from puncturing the skin and leaking the drug.
The photothermal tail flick experiment is based on the experimental method summarized by D'Amour and Smith to optimize the experimental parameters. The experiment selected Kunming male mice with body weigh 21±2 g, and ambient temperature controlled at 22±2° C. The experimental mice were allowed to drink water freely and were moved from the breeding room to the experimental area for adaptation for 30 minutes before starting the experiment. Then the mice were grab with the right hand and the tail hang freely. Then the mice's tail were placed on a radiation light source, 2-3 mm away from the mice tail. The intensity of radiation heat was adjusted to the tail flick time of mice being 3-5 s, which is the basic pain threshold of photothermal tail flick. The irradiation time of the mice tail should not exceed 10 s to prevent scalding of the mice tail, which was the maximum latency for photothermal tail flick. After administration, time points of 10, 20, 30, 45, 60, 90, 120, 180, 240, 300, 360, and 420 minutes were selected to measure the tail flick latency of mice after administration.
The analgesic effect of drugs was generally evaluated using the maximum analgesic effect MPE (%), MPE (%)=100×[(pain threshold after administration−basic pain threshold)/(10 seconds−basic pain threshold)]. 50% effective dose (ED50) refers to the corresponding drug dose that causes a 50% effect. ED50 and 95% confidence interval were calculated using MPE (%) and the drug concentration that achieves the maximum analgesic effect MPE (%) by the statistical software GraphPad Prism 5.0. The difference in analgesic effects was statistically analyzed using one-way ANOVA (Dunnett test), *P<0.05, **P<0.01, and ***P<0.001 indicated significance of the difference between the group with only drug injected and the saline group.

male mice = test: Conditioned place preference experiment (CPP); conditions: 10000 μg/kg orally
Method: Conditioned place preference experiment (CPP) was conducted in a device consisting of three organic glass boxes, wherein two large boxes (20×20×20 cm) on either side separated by a small box (5×20×20 cm) in the middle. A small door of 5×5 was at the bottom of two large boxes for mice to enter and exit, and the doors can be closed. A box on one side was white, with a rough wire mesh as the bottom and a light intensity of 50 lux. A box on other side was black, with a smooth bottom and a light intensity of 20 lux. 25±5 g male mice were selected for the experiment, the room temperature was 22±1° C. On the first day of the experiment, the mice were first screened, allowing them to shuttle freely between two boxes for 15 minutes. The time the mice stayed in one box was recorded, and mice that stayed for more than 9 minutes were removed. Mice without preference/aversion were selected. […] On the 5th day, CPP performance was measured. As on the first day, the time stay in each box was measured for the mice after administration with the duration of 15 minutes. The inter group differences between different drug treatments in the CPP experiment and the differences in the number of jumps in the naloxone withdrawal experiment was statistically analyzed using paired t-tests. *P<0.05, **P<0.01, and ***P<0.001 indicated significance of differences between the drug treatment group and the saline group.

| Compound | locomotor activity versus saline (Kunming male mice [1]) | locomotor distance (Kunming male mice [1]) [m] | ED50 value (95% confidence interval), analgesic activity (Kunming male mice [2]) | conditioned place preference (male mice) |
| --- | --- | --- | --- | --- |
| CN1C(=O)CNC(=O)[C@H](NC(=O)[C@@H](N)Cc2ccc(O)cc2)CCCCNC(=O)C[C@@H](C(=O)N2CCC[C@H]2C(=O)N[C@@H](CCC(N)=O)C(=O)N[C@@H](CCCNC(=N)N)C(=O)N[C@@H](Cc2ccccc2)C(N)=O)NC(=O)[C@@H]1Cc1ccccc1 [Compound 1, Tyr-c[D-Lys-Gly-NMe-Phe-Asp]-Pro-Gln-Arg-Phe-NH2] (H-Y[dK]G[NMeF]DPQRF-NH2; lactam 2-5) | no change in the locomotor activity | 109.4±32.16 | 0.32 (0.27 to 0.38) μg/kg | no phenomenon of conditioned place preference |
| CN1C(=O)CNC(=O)[C@H](NC(=O)[C@@H](N)Cc2ccc(O)cc2)CCCNC(=O)CC[C@@H](C(=O)N2CCC[C@H]2C(=O)N[C@@H](CCC(N)=O)C(=O)N[C@@H](CCCNC(=N)N)C(=O)N[C@@H](Cc2ccccc2)C(N)=O)NC(=O)[C@@H]1Cc1ccccc1 [Compound 11, Tyr-c^[2,5][D-Orn-Gly-NMe-Phe-Glu]-Pro-Gln-Arg-Phe-NH2] (H-Y[dOrn]G[NMeF]EPQRF-NH2; lactam 2-5) | no change in the locomotor activity | 127.9±23.49 | – | no phenomenon of conditioned place preference |
